Where a name gives a salt, the structure may show the parent alone. Read-outs that look alike come from different tables or passages of the source.

The text below walks through data of patent US6342504B1, “Aromatic heterocyclic derivatives as enzyme inhibitors” (priority 1994, dated 2002).

Assay [1] addresses T1, human alpha thrombin (Homo sapiens, UniProt P00734).
T1 construct: Purified human alpha-thrombin; purchased Enzyme Research Laboratories, Inc
The assay is described as follows: Thrombin (fIIa) IC50 assay, chromogenic substrate Pefachrome t-PA. In kind it is biochemical. On the procedure: (§1) The ability of compounds of the present invention to act as a selective inhibitor of thrombin catalytic activity was assessed by determining the concentration of compound which inhibited the activity of this enzyme by 50%, (IC50), and comparing this value to that determined for all or some of the following related serine proteases: recombinant tissue plasminogen activator (rt-PA), plasmin, activated protein C, chymotrypsin, factor Xa and trypsin.
(§2) The buffer used for all assays was HBSA (10 mM HEPES, pH 7.5, 150 mM sodium chloride, 0.1% bovine serum albumin).
(§3) The assay for IC50 determinations was conducted by combining in appropriate wells of a Corning microtiter plate, 50 microliters of HBSA, 50 microliters of the test compound at a specified concentration (covering a broad concentration range) diluted in HBSA (or HBSA alone for VO (uninhibited velocity) measurement), and 50 microliters of the enzyme diluted in HBSA. Following a 30 minute incubation at ambient temperature, 50 microliters of the substrate at the concentrations specified below were added to the wells, yielding a final total volume of 200 microliters. The initial velocity of chromogenic substrate hydrolysis was measured by the change in absorbance at 405 nm using a Thermo Max® Kinetic Microplate Reader over a 5 minute period in which less than 5% of the added substrate was utilized. The concentration of added inhibitor which caused a 50% decrease in the initial rate of hydrolysis was defined as the IC50 value.
Enzyme activity was determined using the chromogenic substrate, Pefachrome t-PA (CH3SO2-D-hexahydrotyrosine-glycyl-L-Arginine-p-nitroaniline, obtained from Pentapharm Ltd.). The substrate was reconstituted in deionized water prior to use. Purified human a-thrombin was obtained from Enzyme Research Laboratories, Inc. The buffer used for all assays was HBSA (10 mM HEPES, pH 7.5, 150 mM sodium chloride, 0.1% bovine serum albumin).
IC50 determinations were conducted where HBSA ([…]), a-thrombin (50 μl) and inhibitor (50 μl) (covering a broad concentration range), were combined in appropriate wells and incubated for 30 minutes at room temperature prior to the addition of substrate Pefachrome-t-PA (50 μl). The initial velocity of Pefachrome t-PA hydrolysis was measured by the change in absorbance at 405 nm using a Thermo Max® Kinetic Microplate Reader over a 5 minute period in which less than 5% of the added substrate was utilized. The concentration of added inhibitor which caused a 50% decrease in the initial rate of hydrolysis was defined as the IC50 value.

For assay [2], the target named is T2, Human rt-PA (Activase) (Homo sapiens, UniProt P00750).
T2 construct: purchased Genentech Inc
The assay is described as follows: biochemical. As to conditions: 30 minute incubation. How it is done: as §1, §2, §3
Recombinant Tissue Plasminogen Activator (rt-PA) Assay
rt-PA catalytic activity was determined using the substrate, Pefachrome t-PA (CH3SO2-D-hexahydrotyrosine-glycyl-L-arginine-p-nitroaniline, obtained from Pentapharm Ltd.). The substrate was made up in deionized water followed by dilution in HBSA prior to the assay in which the final concentration was 500 micromolar (about 3-times Km). Human rt-PA (Activase®) was obtained from Genentech Inc. The enzyme was reconstituted in deionized water and diluted into HBSA prior to the assay in which the final concentration was 1.0 nM.

Assay [3] deals with human plasmin (Homo sapiens, UniProt P00747). Briefly: biochemical. As to conditions: 30 minute incubation. On the procedure:
as §1, §2, §3
Plasmin catalytic activity was determined using the chromogenic substrate, S-2366 [L-pyroglutomyl-L-prolyl-L-arginine-p-nitroaniline hydrochloride], which was obtained from Pharmacia-Upjohn. The substrate was made up in deionized water followed by dilution in HBSA prior to the assay in which the final concentration was 300 micromolar (about 2.5-times Km). Purified human plasmin was obtained from Enzyme Research Laboratories, Inc. The enzyme was diluted into HBSA prior to assay in which the final concentration was […].

Assay [4] has as its target T3, human aPC (Homo sapiens, UniProt P04070).
T3 construct: purchased Hematologic Technologies, Inc
Briefly: biochemical. As to conditions: 30 minute incubation; for IC50: read-out: aPC (IC50) (Table 3A). How it is done:
as §2
Following a 30 minute incubation at ambient temperature, 50 microliters of the substrate at the concentrations specified below were added to the wells, yielding a final total volume of 200 microliters.
Activated Protein C (aPC) Assay
aPC catalytic activity was determined using the chromogenic substrate, Pefachrome PC (delta-carbobenzloxy-D-lysine-L-prolyl-L-arginine-p-nitroaniline dihydrochloride), obtained from Pentapharm Ltd.). […] Purified human aPC was obtained from Hematologic Technologies, Inc. The enzyme was diluted into HBSA prior to assay in which the final concentration was 1.0 nM.

[5] abbreviates: read-out: rt-PA (IC50) (Table 3A).
[6] abbreviates: read-out: Plasmin (IC50) (Table 3A).
Setting [7] is: read-out: Plasmin IC50 (Table 3B).
[8] abbreviates: 30 minute incubation, read-out: Thrombin IC50 (Table 3C).

T3 sequence (P04070 43-197): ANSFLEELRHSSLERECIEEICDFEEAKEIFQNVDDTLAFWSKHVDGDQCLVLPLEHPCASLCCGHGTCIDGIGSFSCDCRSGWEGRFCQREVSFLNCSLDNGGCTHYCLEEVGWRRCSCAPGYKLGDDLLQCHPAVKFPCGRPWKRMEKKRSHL
T3 sequence (P04070 212-461): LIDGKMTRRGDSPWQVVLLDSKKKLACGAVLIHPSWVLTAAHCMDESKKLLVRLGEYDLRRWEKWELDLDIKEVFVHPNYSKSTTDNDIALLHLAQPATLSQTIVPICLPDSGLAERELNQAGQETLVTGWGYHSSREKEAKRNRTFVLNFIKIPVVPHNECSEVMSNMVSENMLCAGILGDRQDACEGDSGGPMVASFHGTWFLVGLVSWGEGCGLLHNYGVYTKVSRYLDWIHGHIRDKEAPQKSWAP
T2 sequence (P00750 36-562): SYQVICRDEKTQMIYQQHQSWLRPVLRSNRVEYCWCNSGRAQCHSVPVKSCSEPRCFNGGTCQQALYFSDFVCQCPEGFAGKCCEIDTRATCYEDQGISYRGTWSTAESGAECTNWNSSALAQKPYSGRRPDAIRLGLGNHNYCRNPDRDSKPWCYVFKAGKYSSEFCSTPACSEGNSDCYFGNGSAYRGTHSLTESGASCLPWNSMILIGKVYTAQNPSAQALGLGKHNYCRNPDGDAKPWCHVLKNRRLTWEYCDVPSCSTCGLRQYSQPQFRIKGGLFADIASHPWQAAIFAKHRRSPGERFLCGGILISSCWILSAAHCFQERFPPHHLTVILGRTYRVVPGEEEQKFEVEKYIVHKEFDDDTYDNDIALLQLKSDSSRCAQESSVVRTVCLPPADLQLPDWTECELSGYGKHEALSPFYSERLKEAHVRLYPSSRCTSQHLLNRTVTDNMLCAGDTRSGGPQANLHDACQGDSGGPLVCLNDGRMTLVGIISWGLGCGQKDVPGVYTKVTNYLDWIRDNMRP
human plasmin, sequence (P00747 97-580): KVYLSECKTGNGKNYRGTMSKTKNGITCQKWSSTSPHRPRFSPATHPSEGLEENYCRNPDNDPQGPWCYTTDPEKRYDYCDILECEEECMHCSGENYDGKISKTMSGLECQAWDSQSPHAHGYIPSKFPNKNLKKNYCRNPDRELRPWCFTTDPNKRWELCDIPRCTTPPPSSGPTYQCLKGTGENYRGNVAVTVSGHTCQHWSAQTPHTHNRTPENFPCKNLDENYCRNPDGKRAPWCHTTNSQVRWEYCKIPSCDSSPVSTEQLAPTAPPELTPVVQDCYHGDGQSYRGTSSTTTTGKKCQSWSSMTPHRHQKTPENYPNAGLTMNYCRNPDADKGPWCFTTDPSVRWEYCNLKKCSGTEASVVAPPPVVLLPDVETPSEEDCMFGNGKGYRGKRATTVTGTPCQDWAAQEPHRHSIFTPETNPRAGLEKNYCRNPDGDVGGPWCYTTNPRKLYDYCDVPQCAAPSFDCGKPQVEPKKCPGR
human plasmin, sequence (P00747 581-810): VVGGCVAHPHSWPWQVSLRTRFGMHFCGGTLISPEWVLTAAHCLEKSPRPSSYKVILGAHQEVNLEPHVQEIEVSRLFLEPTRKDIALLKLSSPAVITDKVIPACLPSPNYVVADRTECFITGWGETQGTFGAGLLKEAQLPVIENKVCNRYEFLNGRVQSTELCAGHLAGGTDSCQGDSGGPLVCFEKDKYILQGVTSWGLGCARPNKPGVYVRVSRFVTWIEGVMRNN

Turning to `Cc1ccc(F)cc1S(=O)(=O)Nc1cccn(CC(=O)N[C@H](C=O)CCCNC(=N)N)c1=O` [2-Me, 5-F-phenyl, [3-(2-methyl-5-fluorophenyl)sulfonylamino-2-oxo-1,2-dihydro-pyridyl]acetyl-L-argininal], the half-inhibitory concentration (IC50) in assay [1] was 1.97 nM; in assay [2] (setting [5]) it was more than 2500 nM; in assay [3] (setting [6]) it was more than 2500 nM; in assay [4] it was more than 2500 nM.

Take `COc1ccc(Cl)cc1S(=O)(=O)Nc1cccn(CC(=O)NC(C=O)CCCNC(=N)N)c1=O` [2-OMe, 5-Cl-phenyl, (5-chloro-2-methoxy-phenylsulfonyl-3-amino-2-oxo-1,2-dihydropyridyl)acetyl-L-Argininal, trifluoroacetate salt]: the IC50 in assay [1] is 1.16 nM; in assay [2] (setting [5]), more than 2500 nM; in assay [3] (setting [6]), more than 2500 nM; in assay [4], more than 2500 nM.

Regarding `N=C(N)NCCC[C@@H](C=O)NC(=O)Cn1cccc(NS(=O)(=O)c2ccccc2C(F)(F)F)c1=O` [Compound 2-CF3-phenyl], the IC50 is 5.6 nM in assay [1], more than 2500 nM in assay [2] (setting [5]), more than 2500 nM in assay [3] (setting [6]) and more than 2500 nM in assay [4].

For `Cc1ccccc1S(=O)(=O)Nc1cccn(CC(=O)N[C@H](C=O)CCCNC(=N)N)c1=O` [Compound 2-Me-phenyl, [3-(2-methylphenyl)sulfonylamino-2-oxo-1,2-dihydropyridyl]acetyl-L-argininal], the IC50 is 1.4 nM in assay [1], more than 2500 nM in assay [2] (setting [5]), more than 2500 nM in assay [3] (setting [6]) and more than 2500 nM in assay [4].

With `N=C(N)NCCC[C@@H](C=O)NC(=O)Cn1cccc(NS(=O)(=O)c2ccccc2N)c1=O` [Compound 2-NH2phenyl, [3-(2-aminophenyl)sulfonylamino-2-oxo-1,2-dihydropyridyl]acetyl-L-argininal], the IC50 in assay [1] was 3.7 nM; in assay [2] (setting [5]), more than 2500 nM; in assay [3] (setting [6]) it was more than 2500 nM; in assay [4], more than 2500 nM.

For the compound `COc1ccccc1S(=O)(=O)Nc1cccn(CC(=O)N[C@H](C=O)CCCNC(=N)N)c1=O` [Compound 2-OMe-phenyl, [3-(2-methoxylphenyl)sulfonylamino-2-oxo-1,2-dihydropyridyl]acetyl-L-argininal], the IC50 is 1.98 nM in assay [1], more than 2500 nM in assay [2] (setting [5]), more than 2500 nM in assay [3] (setting [6]) and more than 2500 nM in assay [4].

On to `N=C(N)NCCC[C@@H](C=O)NC(=O)Cn1cccc(NS(=O)(=O)c2cccc(C(F)(F)F)c2)c1=O` [Compound 3-CF3-phenyl, [3-(3-trifluoromethylphenyl)sulfonylamino-2-oxo-1,2-dihydro-pyridyl]acetyl-L-argininal], for which the IC50 in assay [1] is 3.1 nM; in assay [2] (setting [5]) it was more than 2500 nM; in assay [3] (setting [6]), more than 2500 nM; in assay [4], more than 2500 nM.

On to `Cc1cccc(S(=O)(=O)Nc2cccn(CC(=O)N[C@H](C=O)CCCNC(=N)N)c2=O)c1` [Compound 3-Me-phenyl, [3-(3-methyiphenyl)sulfonylamino-2-oxo-1,2-dihydro-pyridyl]acetyl-L-argininal], for which the IC50 in assay [1] is 0.85 nM; in assay [2] (setting [5]), more than 2500 nM; in assay [3] (setting [6]), more than 2500 nM; in assay [4], more than 2500 nM.

For `COc1cccc(S(=O)(=O)Nc2cccn(CC(=O)N[C@H](C=O)CCCNC(=N)N)c2=O)c1` [Compound 3-OMe-phenyl, [3-(3-methoxylphenyl)sulfonylamino-2-oxo-1,2-dihydropyridyl]acetyl-L-argininal], the IC50 in assay [1] is 0.65 nM; in assay [2] (setting [5]), more than 2500 nM; in assay [3] (setting [6]) it was more than 2500 nM; in assay [4], more than 2500 nM.

On to `N=C(N)NCCC[C@@H](C=O)NC(=O)Cn1cccc(NS(=O)(=O)c2ccccc2F)c1=O` [Compound 121A], for which the values for the IC50 in assay [1] and in assay [3] (setting [7]) were 14.7 nM and more than 2500 nM, respectively.

Turning to `COc1ccc(OC)c(S(=O)(=O)Nc2cccn(CC(=O)N[C@H](C=O)CCCNC(=N)N)c2=O)c1` [Compound 121E, [3-(2,5-dimethoxyphenyl)sulfonylamino-2-oxo-1,2-dihydropyridyl]acetyl-L-argininal], the half-inhibitory concentration (IC50) in assay [1] was 0.597 nM; in assay [3] (setting [7]), more than 2500 nM. In assay [2], the “rtPA IC50 (Table 3B)” value is “inactive”. The “aPC IC50 (Table 3B)” value in assay [4] was “inactive”.

In the case of `N=C(N)NCCC[C@@H](C=O)NC(=O)Cn1cccc(NS(=O)(=O)CCc2ccccc2)c1=O` [Compound 121G, [3-(phenethyl)sulfonylamino-2-oxo-1,2-dihydropyridyl]acetyl-L-argininal], the IC50 was 46.9 nM in assay [1] and approximately 2500 nM in assay [3] (setting [7]).

`N=C(N)NCCC[C@@H](C=O)NC(=O)Cn1cccc(NS(=O)(=O)Cc2ccccc2F)c1=O` [Compound 121J]: the IC50 in assay [1] was 0.763 nM; in assay [2] (read-out: rtPA IC50 (Table 3B)), more than 2500 nM; in assay [3] (setting [7]), more than 2500 nM. The “aPC IC50 (Table 3B)” value in assay [4] is “inactive”.

Turning to `N=C(N)NCCC[C@@H](C=O)NC(=O)Cn1cccc(NS(=O)(=O)Cc2cccc(F)c2)c1=O` [Compound 121K], the IC50 in assay [1] is 0.882 nM; in assay [3] (setting [7]) it was more than 2500 nM. The “rtPA IC50 (Table 3B)” value in assay [2] is “inactive”. In addition, in assay [4], the “aPC IC50 (Table 3B)” value was “inactive”.

On to `COC(=O)c1ccccc1CS(=O)(=O)Nc1cccn(CC(=O)N[C@H](C=O)CCCNC(=N)N)c1=O` [Compound 121M], for which the values for the IC50 in assay [1] and in assay [3] (setting [7]) were 0.623 nM and more than 2500 nM, respectively.

Regarding `COc1cccc(S(=O)(=O)Nc2ccc(=O)n(CC(=O)N[C@H](C=O)CCCNC(=N)N)c2)c1OC` [Compound 152B, [5-(2,3-dimethoxy-benzene)sulfonylamino-2-oxo-1,2-dihydropyridyl]acetyl-L-argininal], the IC50 in assay [1] (setting [8]) amounted to 14.9 nM.

In the case of `Cc1ccc(NS(=O)(=O)Cc2ccccc2)c(=O)n1CC(=O)N[C@H](C=O)CCCNC(=N)N` [Compound C, (3-benzylsulfonylamino-6-methyl-2-oxo-1,2-dihydro-1-pyridyl)acetyl-L-argininal, trifluoroacetate salt], the IC50 in assay [1] was 0.467 nM; in assay [3] (read-out: IC50 Plasmin (Table 2)), more than 2500 nM.

With “[2,3-methylenedioxy-benzene)sulfonylamino-2-oxo-1,2-dihydropyridyl]acetyl-L-argininal [Compound 152D]”, the IC50 in assay [1] (setting [8]) is 0.794 nM.

Take “[5-(1,3-benzodioxole)sulfonylalmino-6-methyl-2-oxo-1,2-dihydro-pyridyl]acetyl-L-argininal [Compound 153D]”: in assay [1] (setting [8]), the IC50 was found to be 0.31 nM.

In the case of “[5-(1,3-benzodioxole)sulfonylamino-2-oxo-1,2-dihydropyridyl]acetyl-L-argininal [Compound 152A]”, in assay [1] (setting [8]), the IC50 is 0.807 nM.

As for “[5-(1,4-benzodioxan)sulfonylamino-6-methyl-2-oxo-1,2-dihydro-pyridyl]acetyl-L-argininal [Compound 153B]”, in assay [1] (setting [8]), the IC50 was determined as 0.274 nM.

As for “[5-(2,3-dihydrobenzofuran)sulfonylamino-6-methyl-2-oxo-1,2-dihydro-pyridyl]acetyl-L-argininal [Compound 153C]”, the IC50 in assay [1] (setting [8]) was 0.266 nM.

With “[5-(2,3-dioxaspirocyclohexyl)-sulfonylamino-2-oxo-1,2-dihydropyridyl]acetyl-L-argininal [Compound 152C]”, the IC50 in assay [1] (setting [8]) was 6.01 nM.

Usually IC50 stands for the point on the concentration scale where inhibition reaches its midpoint.
